By EC50 is commonly meant the concentration that produces a half-maximal response.

The experiment has as its target T1, ABCD2 WT (Homo sapiens, UniProt Q9UBJ2).
T1 construct: expressed in transfected cells
T1 sequence (Q9UBJ2 1-740): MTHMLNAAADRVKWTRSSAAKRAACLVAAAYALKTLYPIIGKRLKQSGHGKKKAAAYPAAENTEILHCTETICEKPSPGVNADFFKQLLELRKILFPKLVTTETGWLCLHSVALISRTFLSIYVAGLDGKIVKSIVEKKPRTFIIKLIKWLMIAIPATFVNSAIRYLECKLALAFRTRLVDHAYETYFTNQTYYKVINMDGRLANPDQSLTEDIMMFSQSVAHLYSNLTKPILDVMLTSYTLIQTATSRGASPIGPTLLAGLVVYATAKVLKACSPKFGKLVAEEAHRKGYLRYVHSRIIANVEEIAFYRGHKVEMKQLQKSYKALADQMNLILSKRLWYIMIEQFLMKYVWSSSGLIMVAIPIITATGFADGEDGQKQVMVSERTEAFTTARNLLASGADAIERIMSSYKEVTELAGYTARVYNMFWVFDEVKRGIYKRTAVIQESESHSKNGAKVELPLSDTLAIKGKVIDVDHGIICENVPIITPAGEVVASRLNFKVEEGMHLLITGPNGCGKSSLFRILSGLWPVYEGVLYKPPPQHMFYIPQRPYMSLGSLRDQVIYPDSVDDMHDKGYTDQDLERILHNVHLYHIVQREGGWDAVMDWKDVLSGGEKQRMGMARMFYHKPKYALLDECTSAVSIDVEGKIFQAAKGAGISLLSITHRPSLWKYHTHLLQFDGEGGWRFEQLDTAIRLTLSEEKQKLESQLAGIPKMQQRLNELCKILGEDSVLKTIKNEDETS
Put plainly: D2 correction dose-response assay: ABCD2 WT HiBit protein expression. Type of experiment: cell-based. The settings on record: HEK-293/ABCD2 WT cells, 24 hours treatment, HiBit luminescence; class combines EC50 and Mean MaxAct (fold); read-out: ABCD2 WT EC50, Emax. Summed up: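 HEK-293 cells stably expressing HiBit-tagged human ABCD2 WT were treated with 11 doses (3-fold dilutions, top final 30 μM, 0.3% DMSO) for 24 h at 37 °C. Expression was measured by HiBit lytic luminescence after 1 h at 25 °C, giving EC50 and Emax.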
(The HiBiT peptide binds its large partner to form an active luciferase.)
In the case of `Cc1cc(C)c(Oc2nc(-n3cnc(C#N)c3)ccc2N(C)S(C)(=O)=O)c(C)c1` [Compound I-272], the EC50 was greater than 25 µM. Consider `Cc1cc(C)c(Oc2nc(-n3cnc(C#N)c3)ccc2NS(C)(=O)=O)c(C)c1` [Compound I-273], for which the EC50 was less than 1 µM. Regarding `Cc1cc(C)c(Oc2nc(-n3cc(C#N)cn3)ccc2NS(C)(=O)=O)c(C)c1` [Compound I-274], the EC50 fell in the range of 1 to 10 µM. Take `Cc1cc(C)c(Oc2nc(-c3cncc(C#N)c3)cnc2NS(C)(=O)=O)c(C)c1` [Compound I-275]: the EC50 was less than 1 µM. With `Cc1cc(C)c(Oc2nc(-c3cncc(C#N)c3)ccc2NS(=O)(=O)C(C)C)c(C)n1` [Compound I-276] the figure was greater than 25 µM; with `Cc1cc(C)c(Oc2nc(-c3cncc(Cl)c3)cnc2NS(C)(=O)=O)c(C)c1` [Compound I-277], less than 1 µM; with `Cc1cc(C)c(Oc2nc(-c3cncc(S(C)(=O)=O)c3)ccc2NS(C)(=O)=O)c(C)c1` [Compound I-278], 1 to 10 µM.

For the molecule `Cc1cc(C)c(Oc2nc(-c3cncc(C#N)c3)ccc2S(C)(=N)=O)c(C)c1` (stereo not shown) [Compound I-279], the EC50 lay in the range of 10 to 25 µM. For `Cc1cc(C)c(Oc2nc(-c3cncc(C#N)c3)ccc2S(N)(=O)=O)c(C)c1` [Compound I-280], the EC50 was less than 1 µM. `CNS(=O)(=O)c1ccc(-c2cncc(C#N)c2)nc1Oc1c(C)cc(C)cc1C` [Compound I-281]: the EC50 is less than 1 µM. With `Cc1cc(C)c(Oc2nc(-c3cc(Cl)cnc3C)ccc2NS(C)(=O)=O)c(C)n1` [Compound I-282] the figure was 1 to 10 µM; with `Cc1cc(C)c(Oc2nc(-c3cn(C)nc3C)ccc2NS(C)(=O)=O)c(C)c1` [Compound I-283], 1 to 10 µM. As for `Cc1cc(C)c(Oc2nc(-c3cncc(C#N)c3)ncc2NS(C)(=O)=O)c(C)n1` [Compound I-284], the EC50 was less than 1 µM. With `Cc1cc(C)c(Oc2nc(N3CCN(C(=O)C4CC4)CC3)ccc2S(N)(=O)=O)c(C)c1` [Compound I-285], the EC50 is 10 to 25 µM. In the case of `Cc1cc(C2CC2)nc(C2CC2)c1Oc1nc(-c2cncc(C#N)c2)ccc1S(=N)(=O)C1CC1` (stereo not shown) [Compound I-317], the EC50 was in the range of 1 to 10 µM. For the molecule `Cc1cc(C(F)F)cc(C2CC2)c1Oc1nc(-c2cncc(C#N)c2)ccc1S(=N)(=O)C1CC1` (stereo not shown) [Compound I-319], the EC50 was in the range of 1 to 10 µM. For the molecule `Cc1cc(C(F)F)nc(C2CC2)c1Oc1nc(-c2cncc(C#N)c2)ccc1S(=O)(=O)NC1CCOCC1` [Compound I-320], the EC50 was greater than 25 µM. With `Cc1cc(C(F)F)nc(C2CC2)c1Oc1nc(-c2cncc(C#N)c2)ccc1S(=O)(=O)NC1COC1` [Compound I-321] the figure was 1 to 10 µM. As for `Cc1cc(C2CC2)nc(C2CC2)c1Oc1nc(-c2cncc(C#N)c2)ccc1S(=O)(=O)NC1CCOCC1` [Compound I-322], the EC50 is greater than 25 µM.

As to `Cc1cc(C)c(Oc2[nH]c(-c3cncc(C#N)c3)cc(=O)c2NS(C)(=O)=O)c(C)n1` [Compound I-325], the EC50 was in the range of 10 to 25 µM.

As to `Cc1cc(C)c(Oc2nc(-c3cc(C#N)c[nH]c3=O)ccc2NS(C)(=O)=O)c(C)n1` [Compound I-326], the EC50 is greater than 25 µM.

With `Cc1cc(C)c(Oc2nc(-c3cncc(C#N)c3)c(O)cc2NS(C)(=O)=O)c(C)n1` [Compound I-327], the EC50 was less than 1 µM.

For the origin of these results see patent publication US20250228835A1, “PYRIDINYLOXYPYRIDINES AND RELATED COMPOUNDS AND THEIR USE IN TREATING MEDICAL CONDITIONS” (Rectify Pharmaceuticals, Inc., priority 2024, published 2025).
